Experiment [1] has as its target BChE (EC 3.1.1.8, equine serum) (Equus caballus, UniProt P81908). Briefly: biochemical. The class given is biochemical. Conditions: for IC50: Ellman's method, 5 min pre-incubation at 4 °C, triplicate. A general note: Ellman's reagent forms a yellow product with free thiols.
The test system of the next experiment is TNFα production. Conditions: cited from earlier work; for anti-inflammatory activity: previous series.
For experiment [2], the target named is AChE (EC 3.1.1.7, Electrophorus electricus) (Electrophorus electricus, UniProt O42275). The experiment can be described thus: biochemical. The experiment is classed as biochemical. Conditions: for IC50: Ellman's method, 5 min pre-incubation at 4 °C, triplicate.
The next experiment has as its system BChE. Also on record: method as in PMID 35870364, PMID 35228009. Conditions: previous research; cited from earlier work.

Where only a bound is given, the exact number is not on record here.

Chain of BChE (EC 3.1.1.8, equine serum) (P81908 whole entry): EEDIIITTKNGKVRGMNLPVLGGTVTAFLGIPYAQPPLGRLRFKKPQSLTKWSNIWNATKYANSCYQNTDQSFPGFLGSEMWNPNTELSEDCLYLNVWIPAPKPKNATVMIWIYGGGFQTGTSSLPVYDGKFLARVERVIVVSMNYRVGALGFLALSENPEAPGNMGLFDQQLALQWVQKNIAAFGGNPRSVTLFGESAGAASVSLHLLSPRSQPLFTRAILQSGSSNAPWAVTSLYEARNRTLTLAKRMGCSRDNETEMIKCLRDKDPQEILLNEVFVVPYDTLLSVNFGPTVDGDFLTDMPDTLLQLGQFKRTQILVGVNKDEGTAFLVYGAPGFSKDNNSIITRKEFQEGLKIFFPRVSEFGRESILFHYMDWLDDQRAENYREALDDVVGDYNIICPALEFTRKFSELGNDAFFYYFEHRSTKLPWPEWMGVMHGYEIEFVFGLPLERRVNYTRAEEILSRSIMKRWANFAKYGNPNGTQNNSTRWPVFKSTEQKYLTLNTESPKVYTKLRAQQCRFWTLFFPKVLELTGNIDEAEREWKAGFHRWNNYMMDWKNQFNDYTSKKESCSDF
Chain of AChE (EC 3.1.1.7, Electrophorus electricus) (O42275 24-633): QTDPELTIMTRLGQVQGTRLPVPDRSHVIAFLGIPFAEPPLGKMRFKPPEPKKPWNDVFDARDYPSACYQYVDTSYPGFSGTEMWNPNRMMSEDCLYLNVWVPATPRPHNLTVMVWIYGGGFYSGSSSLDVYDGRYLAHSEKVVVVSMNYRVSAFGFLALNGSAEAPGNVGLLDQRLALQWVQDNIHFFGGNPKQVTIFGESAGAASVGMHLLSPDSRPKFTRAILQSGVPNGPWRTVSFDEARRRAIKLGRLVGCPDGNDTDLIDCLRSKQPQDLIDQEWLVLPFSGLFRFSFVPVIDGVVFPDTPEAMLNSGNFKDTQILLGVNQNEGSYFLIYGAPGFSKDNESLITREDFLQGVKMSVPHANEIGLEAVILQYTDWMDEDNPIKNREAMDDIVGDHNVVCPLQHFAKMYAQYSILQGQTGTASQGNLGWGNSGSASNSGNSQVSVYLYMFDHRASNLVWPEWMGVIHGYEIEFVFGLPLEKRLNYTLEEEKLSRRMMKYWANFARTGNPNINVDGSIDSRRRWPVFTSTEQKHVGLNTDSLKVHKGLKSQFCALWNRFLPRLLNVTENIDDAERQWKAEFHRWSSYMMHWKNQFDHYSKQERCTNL

`Fc1ccc(Cn2nnc3c2-c2ccsc2CC3)cc1` [Compound 13, 1-(4-fluorobenzyl)-4,5-dihydro-1H-thieno[3′,2′:3,4]benzo[1,2-d][1,2,3]triazole]: the IC50 in experiment [1] amounted to 58 µM.

Take `COc1ccc(Cn2nnc3ccc4ccc(OC)cc4c32)cc1` [Compound 2]: the anti-inflammatory activity result in the experiment on TNFα production was “best anti-inflammatory activity of all the tested compounds”. The “inhibitory activity toward AChE (in words)” value in experiment [2] (final concentrations 10–500 μM) was “no inhibitory activity”. The “inhibitory activity toward BChE (in words)” value in experiment [1] (final concentrations 10–500 μM) is given as “no inhibitory activity”.

With `COc1ccc2c3c1O[C@H]1C[C@@H](O)C=C[C@@]31CCN(C)C2` [Galantamine, galantamine], in the experiment on BChE, the IC50 was 7.9 µM.

`COc1ccc(CCn2nnc3ccc4sccc4c32)cc1` [Compound 9, 1-(4-methoxyphenethyl)-1H-thieno[3′,2′:3,4]benzo[1,2-d][1,2,3]triazole] came in with a concentration for half-maximal inhibition (IC50) in experiment [1] of 18.6 µM.

For `OCCCCn1nnc2c1-c1ccsc1CC2` [Compound 19, 4-(4,5-dihydro-1H-thieno[3′,2′:3,4]benzo[1,2-d][1,2,3]triazol-1-yl)butan-1-ol], 74.1 µM corresponded to half-maximal inhibition in experiment [1] (IC50).

Regarding `C=CCn1nnc2ccc3sccc3c21` [structure C, reference compound], the TNFα production inhibition result in the experiment with TNFα production (LPS-stimulated human PBMCs) is on record as “good TNFα production inhibition”. Further, in the experiment with BChE, the IC50 was 3.8 µM.

For the compound `FC(F)(F)c1ccc(Cn2nnc3c2-c2ccsc2CC3)cc1` [Compound 14, 1-(4-(trifluoromethyl)benzyl)-4,5-dihydro-1H-thieno[3′,2′:3,4]benzo[1,2-d][1,2,3]triazole], the IC50 in experiment [2] was 118 µM; in experiment [1] it was over 150 µM.

As to `Fc1ccc(Cn2nnc3ccc4sccc4c32)cc1` [Compound 4, 1-(4-fluorobenzyl)-1H-thieno[3′,2′:3,4]benzo[1,2-d][1,2,3]triazole], the figures for the IC50 in experiment [2] and in experiment [1] were 97 µM and 37.5 µM, respectively.

Take `CCOC(=O)CCn1nnc2ccc3sccc3c21` [Compound 6, Ethyl 3-(1H-thieno[3′,2′:3,4]benzo[1,2-d][1,2,3]triazol-1-yl)propanoate]: in experiment [1], the IC50 came out at 39.6 µM.

`OCCCCn1nnc2ccc3sccc3c21` [Compound 12, 4-(1H-thieno[3′,2′:3,4]benzo[1,2-d][1,2,3]triazol-1-yl)butan-1-ol] had an IC50 in experiment [1] of 107 µM.

As for `COc1ccc(CCn2nnc3c2-c2ccsc2CC3)cc1` [Compound 16], the values for the 50% inhibitory concentration (IC50) in experiment [2] and in experiment [1] were 145 µM and 119 µM, respectively.

For `FC(F)(F)Oc1ccc(Cn2nnc3ccc4sccc4c32)cc1` [Compound 8, 1-(4-(trifluoromethoxy)benzyl)-1H-thieno[3′,2′:3,4]benzo[1,2-d][1,2,3]triazole], the IC50 in experiment [2] was found to be 68 µM; in experiment [1], 214 µM.

For the compound `COc1ccc(Cn2nnc3ccc4sccc4c32)cc1` [Compound 3, 1-(4-methoxybenzyl)-1H-thieno[3′,2′:3,4]benzo[1,2-d][1,2,3]triazole], the IC50 in experiment [2] came out at 116 µM; in experiment [1] it was 25.5 µM.

Turning to `CC(C)n1nnc2ccc3ccc(Cl)cc3c21` [Compound 1], the anti-inflammatory activity result with TNFα production was “ten times weaker anti-inflammatory activity than 2”. Moreover, the IC50 in experiment [2] was 59.9 µM; in experiment [1], 39.6 µM.

Take `FC(F)(F)c1ccc(Cn2nnc3ccc4sccc4c32)cc1` [Compound 7, 1-(4-(trifluoromethyl)benzyl)-1H-thieno[3′,2′:3,4]benzo[1,2-d][1,2,3]triazole]: the figures for the half-inhibitory concentration (IC50) in experiment [2] and in experiment [1] were 140 µM and over 150 µM, respectively.

Turning to `FC(F)(F)Oc1ccc(Cn2nnc3c2-c2ccsc2CC3)cc1` [Compound 15, 1-(4-(trifluoromethoxy)benzyl)-4,5-dihydro-1H-thieno[3′,2′:3,4]benzo[1,2-d][1,2,3]triazole], in experiment [2], inhibition was half-maximal at 88.7 µM (IC50).

`c1csc(Cn2nnc3ccc4sccc4c32)c1` [Compound 5, 1-(thiophen-2-ylmethyl)-1H-thieno[3′,2′:3,4]benzo[1,2-d][1,2,3]triazole]: the IC50 worked out at 119 µM in experiment [2] and 23.4 µM in experiment [1].

Compound `c1cc2c(s1)CCc1nnn(CCN3CCOCC3)c1-2` [Compound 17, 4-(2-(4,5-dihydro-1H-thieno[3′,2′:3,4]benzo[1,2-d][1,2,3]triazol-1-yl)ethyl)morpholine] showed an IC50 in experiment [2] of 45.6 µM.

Broadly, the IC50 is the point on the concentration scale where inhibition reaches its midpoint.
